The values that follow come from patent US9549932B2, “2-(morpholin-4-yl)-1,7-naphthyridines” (BAYER PHARMA AKTIENGESELLSCHAFT, priority 2014, dated 2017).

Chain of full-length human ATR protein (Q13535 other isoform, or with tags, fused parts or gaps): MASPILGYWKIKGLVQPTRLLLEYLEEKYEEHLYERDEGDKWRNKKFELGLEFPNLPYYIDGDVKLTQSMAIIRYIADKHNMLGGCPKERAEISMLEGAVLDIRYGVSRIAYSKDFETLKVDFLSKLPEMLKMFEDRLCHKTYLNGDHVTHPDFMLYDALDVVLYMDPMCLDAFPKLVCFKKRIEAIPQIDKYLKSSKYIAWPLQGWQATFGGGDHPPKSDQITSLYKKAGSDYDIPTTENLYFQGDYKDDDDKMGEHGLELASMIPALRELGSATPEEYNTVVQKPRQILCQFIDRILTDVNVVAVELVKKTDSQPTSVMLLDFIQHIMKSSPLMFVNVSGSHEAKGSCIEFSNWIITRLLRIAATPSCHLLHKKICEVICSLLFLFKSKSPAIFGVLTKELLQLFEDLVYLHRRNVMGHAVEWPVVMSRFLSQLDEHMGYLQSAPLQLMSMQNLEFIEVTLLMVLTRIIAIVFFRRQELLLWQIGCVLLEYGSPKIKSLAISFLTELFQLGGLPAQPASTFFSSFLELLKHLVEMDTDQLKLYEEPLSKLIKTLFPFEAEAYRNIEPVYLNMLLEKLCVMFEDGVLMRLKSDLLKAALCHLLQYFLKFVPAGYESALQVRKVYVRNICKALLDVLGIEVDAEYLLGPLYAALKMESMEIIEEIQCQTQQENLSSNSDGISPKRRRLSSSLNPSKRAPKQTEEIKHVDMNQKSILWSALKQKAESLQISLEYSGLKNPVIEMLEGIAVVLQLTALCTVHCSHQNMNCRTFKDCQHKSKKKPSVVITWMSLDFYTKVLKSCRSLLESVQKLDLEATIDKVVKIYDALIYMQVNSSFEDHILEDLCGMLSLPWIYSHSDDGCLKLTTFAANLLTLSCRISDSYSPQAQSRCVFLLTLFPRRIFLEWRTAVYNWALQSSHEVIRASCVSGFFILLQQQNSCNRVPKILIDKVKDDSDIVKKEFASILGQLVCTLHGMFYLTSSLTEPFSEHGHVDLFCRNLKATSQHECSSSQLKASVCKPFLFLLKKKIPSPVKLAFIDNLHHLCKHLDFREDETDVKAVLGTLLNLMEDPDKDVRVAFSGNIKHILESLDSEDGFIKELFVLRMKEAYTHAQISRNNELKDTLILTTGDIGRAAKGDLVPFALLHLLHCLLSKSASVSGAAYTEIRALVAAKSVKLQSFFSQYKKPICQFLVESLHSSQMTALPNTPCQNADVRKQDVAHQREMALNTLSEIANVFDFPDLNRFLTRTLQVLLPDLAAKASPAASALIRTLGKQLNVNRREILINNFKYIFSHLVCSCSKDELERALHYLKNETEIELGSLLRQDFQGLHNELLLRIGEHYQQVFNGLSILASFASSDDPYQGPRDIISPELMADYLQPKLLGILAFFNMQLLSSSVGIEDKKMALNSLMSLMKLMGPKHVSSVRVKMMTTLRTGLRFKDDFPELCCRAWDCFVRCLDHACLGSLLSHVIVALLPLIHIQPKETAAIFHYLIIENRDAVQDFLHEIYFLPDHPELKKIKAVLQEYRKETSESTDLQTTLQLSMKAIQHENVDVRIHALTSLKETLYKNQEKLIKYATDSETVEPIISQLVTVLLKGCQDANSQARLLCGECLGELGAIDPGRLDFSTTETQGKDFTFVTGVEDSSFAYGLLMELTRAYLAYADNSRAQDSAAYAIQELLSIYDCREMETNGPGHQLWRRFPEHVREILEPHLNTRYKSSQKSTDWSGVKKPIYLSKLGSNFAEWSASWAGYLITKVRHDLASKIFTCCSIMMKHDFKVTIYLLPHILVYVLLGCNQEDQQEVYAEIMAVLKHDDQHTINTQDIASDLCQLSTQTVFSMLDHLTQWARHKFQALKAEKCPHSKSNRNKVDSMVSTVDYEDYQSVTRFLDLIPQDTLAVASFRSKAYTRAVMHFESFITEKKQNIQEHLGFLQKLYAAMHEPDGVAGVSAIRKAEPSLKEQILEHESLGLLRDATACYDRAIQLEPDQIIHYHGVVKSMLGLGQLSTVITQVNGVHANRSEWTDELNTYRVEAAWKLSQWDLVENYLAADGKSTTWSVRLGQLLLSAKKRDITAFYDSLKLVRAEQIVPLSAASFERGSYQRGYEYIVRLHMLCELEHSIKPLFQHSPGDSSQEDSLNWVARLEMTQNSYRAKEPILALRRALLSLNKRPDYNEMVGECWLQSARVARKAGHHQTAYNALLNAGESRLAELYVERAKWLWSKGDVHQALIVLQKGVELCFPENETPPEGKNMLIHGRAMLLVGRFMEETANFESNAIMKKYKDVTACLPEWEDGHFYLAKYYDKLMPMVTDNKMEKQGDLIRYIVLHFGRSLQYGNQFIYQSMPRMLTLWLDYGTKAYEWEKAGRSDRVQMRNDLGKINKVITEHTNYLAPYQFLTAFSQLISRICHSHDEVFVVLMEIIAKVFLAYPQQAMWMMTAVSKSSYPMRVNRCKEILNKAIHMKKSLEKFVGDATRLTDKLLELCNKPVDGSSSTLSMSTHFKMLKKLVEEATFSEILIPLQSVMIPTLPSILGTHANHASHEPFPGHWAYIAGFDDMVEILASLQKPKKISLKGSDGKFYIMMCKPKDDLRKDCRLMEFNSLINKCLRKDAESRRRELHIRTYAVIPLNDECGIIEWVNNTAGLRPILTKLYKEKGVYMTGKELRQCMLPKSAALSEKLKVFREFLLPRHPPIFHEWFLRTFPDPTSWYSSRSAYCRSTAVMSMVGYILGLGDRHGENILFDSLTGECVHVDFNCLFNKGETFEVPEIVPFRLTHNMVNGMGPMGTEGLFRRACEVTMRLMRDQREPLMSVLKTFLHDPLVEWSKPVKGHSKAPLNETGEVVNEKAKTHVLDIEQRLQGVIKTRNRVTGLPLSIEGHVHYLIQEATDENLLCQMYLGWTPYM
Chain of full-length human ATR protein (Q8WXE1 other isoform, or with tags, fused parts or gaps partner): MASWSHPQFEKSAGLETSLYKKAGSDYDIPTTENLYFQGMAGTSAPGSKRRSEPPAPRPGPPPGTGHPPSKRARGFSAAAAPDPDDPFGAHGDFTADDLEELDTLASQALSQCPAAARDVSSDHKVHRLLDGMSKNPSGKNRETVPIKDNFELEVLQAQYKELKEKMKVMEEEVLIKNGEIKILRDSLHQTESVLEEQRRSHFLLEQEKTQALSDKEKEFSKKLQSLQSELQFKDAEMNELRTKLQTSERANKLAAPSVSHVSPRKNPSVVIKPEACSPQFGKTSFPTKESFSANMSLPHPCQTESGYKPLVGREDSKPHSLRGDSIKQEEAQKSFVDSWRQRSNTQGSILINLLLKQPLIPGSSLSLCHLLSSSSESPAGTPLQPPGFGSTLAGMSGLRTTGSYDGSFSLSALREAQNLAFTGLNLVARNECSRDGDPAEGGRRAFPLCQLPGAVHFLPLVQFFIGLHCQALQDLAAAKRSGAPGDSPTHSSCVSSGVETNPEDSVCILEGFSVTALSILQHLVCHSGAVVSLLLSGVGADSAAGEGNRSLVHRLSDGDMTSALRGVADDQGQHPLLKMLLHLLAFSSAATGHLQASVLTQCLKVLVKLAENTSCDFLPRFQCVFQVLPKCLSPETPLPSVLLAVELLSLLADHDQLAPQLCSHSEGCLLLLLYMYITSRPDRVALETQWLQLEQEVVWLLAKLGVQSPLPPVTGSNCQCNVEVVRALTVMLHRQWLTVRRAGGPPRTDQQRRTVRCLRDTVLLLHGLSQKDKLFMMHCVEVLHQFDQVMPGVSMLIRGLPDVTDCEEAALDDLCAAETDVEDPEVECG

The experiment has as its target full-length human ATR protein (Homo sapiens (Human), UniProt Q13535). Briefly: Binding assay ATR (TR-FRET tracer displacement). The following applies: tracer A, TR-FRET; read-out: ATR binding (tracer A) IC50. The essentials: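 Full-length human GST-ATR co-purified with ATRIP, pre-complexed 30 min at 22 °C with anti-GST-Tb antibody, then pre-bound with compound 10 min. Tracer A or B added (2 µl of 100 nM solution), 30 min at 22 °C.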
Take `C[C@@H]1COCCN1c1cc(C2CCS(=O)(=O)CC2)c2ccnc(-c3ccn[nH]3)c2n1` [Example 204, 4-(1,1-dioxidotetrahydro-2H-thiopyran-4-yl)-2-[(3R)-3-methylmorpholin-4-yl]-8-(1H-pyrazol-5-yl)-1,7-naphthyridine]: the IC50 stood at 6.76 nM.
As to `C[C@@H]1COCCN1c1cc(-c2ccn[nH]2)c2ccnc(-c3ccn[nH]3)c2n1` [Example 205, 2-[(3R)-3-methylmorpholin-4-yl]-4,8-di(1H-pyrazol-5-yl)-1,7-naphthyridine], the half-maximal inhibitory concentration (IC50) was determined as 49.3 nM.
Next, `CN(C)c1cc(N2CCOCC2)nc2c(-c3ccn[nH]3)nccc12` [Example 206, N,N-dimethyl-2-(morpholin-4-yl)-8-(1H-pyrazol-5-yl)-1,7-naphthyridin-4-amine]: 404 nM; `c1ccc(Sc2cc(N3CCOCC3)nc3c(-c4ccn[nH]4)nccc23)cc1` [Example 207, 2-(morpholin-4-yl)-4-(phenylsulfanyl)-8-(1H-pyrazol-5-yl)-1,7-naphthyridine]: 542 nM; `CC(C)Nc1cc(N2CCOCC2)nc2c(-c3ccn[nH]3)nccc12` [Example 208, 2-(morpholin-4-yl)-N-(propan-2-yl)-8-(1H-pyrazol-5-yl)-1,7-naphthyridin-4-amine]: 1160 nM.
To `CCSc1cc(N2CCOCC2)nc2c(-c3ccn[nH]3)nccc12` [Example 209, 4-(ethylsulfanyl)-2-(morpholin-4-yl)-8-(1H-pyrazol-5-yl)-1,7-naphthyridine] belongs 385 nM; to `CC(C)Sc1cc(N2CCOCC2)nc2c(-c3ccn[nH]3)nccc12` [Example 210, 2-(morpholin-4-yl)-4-(propan-2-ylsulfanyl)-8-(1H-pyrazol-5-yl)-1,7-naphthyridine], 231 nM; to `c1c[nH]c(-c2cc(N3CCOCC3)nc3c(-c4ccn[nH]4)nccc23)c1` [Example 211, 2-(morpholin-4-yl)-8-(1H-pyrazol-5-yl)-4-(1H-pyrrol-2-yl)-1,7-naphthyridine], 547 nM.
Next, `c1cc(-c2nccc3c(-c4cc[nH]c4)cc(N4CCOCC4)nc23)[nH]n1` [Example 212, 2-(morpholin-4-yl)-8-(1H-pyrazol-5-yl)-4-(1H-pyrrol-3-yl)-1,7-naphthyridine]: more than 20000 nM; `COc1ccc(Sc2cc(N3CCOCC3)nc3c(-c4ccn[nH]4)nccc23)cc1` [Example 213]: 53.5 nM.
With `Cc1cc(-c2cc(N3CCOCC3)nc3c(-c4ccn[nH]4)nccc23)n[nH]1` [Example 214, 4-(5-methyl-1H-pyrazol-3-yl)-2-(morpholin-4-yl)-8-(1H-pyrazol-5-yl)-1,7-naphthyridine], the IC50 came out at 176 nM.
Next, `O=C1CCCN1c1cc(N2CCOCC2)nc2c(-c3ccn[nH]3)nccc12` [Example 215, 1-[2-(morpholin-4-yl)-8-(1H-pyrazol-5-yl)-1,7-naphthyridin-4-yl]pyrrolidin-2-one]: 317 nM; `O=C1CCCCN1c1cc(N2CCOCC2)nc2c(-c3ccn[nH]3)nccc12` [Example 217, 1-[2-(morpholin-4-yl)-8-(1H-pyrazol-5-yl)-1,7-naphthyridin-4-yl]piperidin-2-one]: 802 nM; `Cc1ncccc1-c1cc(N2CCOC[C@H]2C)nc2c(-c3ccn[nH]3)nccc12` [Example 218, 2-[(3R)-3-methylmorpholin-4-yl]-4-(2-methylpyridin-3-yl)-8-(1H-pyrazol-5-yl)-1,7-naphthyridine]: 11.8 nM.
To `CC(C)Oc1ncccc1-c1cc(N2CCOC[C@H]2C)nc2c(-c3ccn[nH]3)nccc12` [Example 219, 2-[(3R)-3-methylmorpholin-4-yl]-4-[2-(propan-2-yloxy)pyridin-3-yl]-8-(1H-pyrazol-5-yl)-1,7-naphthyridine] belongs 132 nM; to `COc1ncccc1-c1cc(N2CCOC[C@H]2C)nc2c(-c3ccn[nH]3)nccc12` [Example 220, 4-(2-methoxypyridin-3-yl)-2-[(3R)-3-methylmorpholin-4-yl]-8-(1H-pyrazol-5-yl)-1,7-naphthyridine], 32.4 nM; to `c1cc(-c2cc(N3CCOCC3)nc3c(-c4ccn[nH]4)nccc23)ccn1` [Example 221, 2-(morpholin-4-yl)-8-(1H-pyrazol-5-yl)-4-(pyridin-4-yl)-1,7-naphthyridine], 196 nM.
To `COc1ccc(Sc2cc(N3CCOC[C@H]3C)nc3c(-c4ccn[nH]4)nccc23)cc1` [Example 222] belongs 50.2 nM; to `C[C@@H]1COCCN1c1cc(-c2ccnc(N3CCOCC3)c2F)c2ccnc(-c3ccn[nH]3)c2n1` [Example 223, 4-[3-fluoro-2-(morpholin-4-yl)pyridin-4-yl]-2-[(3R)-3-methylmorpholin-4-yl]-8-(1H-pyrazol-5-yl)-1,7-naphthyridine], 124 nM; to `Cc1cc(-c2cc(N3CCOCC3)nc3c(-c4ccn[nH]4)nccc23)cnc1F` [Example 224, 4-(6-fluoro-5-methylpyridin-3-yl)-2-(morpholin-4-yl)-8-(1H-pyrazol-5-yl)-1,7-naphthyridine], 52.1 nM.
`O=C1OCCCN1c1cc(N2CCOCC2)nc2c(-c3ccn[nH]3)nccc12` [Example 225, 3-[2-(morpholin-4-yl)-8-(1H-pyrazol-5-yl)-1,7-naphthyridin-4-yl]-1,3-oxazinan-2-one]: the IC50 was 447 nM.
As for `O=C1OCCN1c1cc(N2CCOCC2)nc2c(-c3ccn[nH]3)nccc12` [Example 226, 3-[2-(morpholin-4-yl)-8-(1H-pyrazol-5-yl)-1,7-naphthyridin-4-yl]-1,3-oxazolidin-2-one], the half-maximal inhibitory concentration (IC50) was found to be 1140 nM.
To `COc1cnccc1-c1cc(N2CCOC[C@H]2C)nc2c(-c3ccn[nH]3)nccc12` [Example 227, 4-(3-methoxypyridin-4-yl)-2-[(3R)-3-methylmorpholin-4-yl]-8-(1H-pyrazol-5-yl)-1,7-naphthyridine] belongs 75.5 nM; to `C[C@@H]1COCCN1c1cc(-c2ccc(F)nc2F)c2ccnc(-c3ccn[nH]3)c2n1` [Example 228, 4-(2,6-difluoropyridin-3-yl)-2-[(3R)-3-methylmorpholin-4-yl]-8-(1H-pyrazol-5-yl)-1,7-naphthyridine], 30.1 nM; to `C[C@@H]1COCCN1c1cc(-c2cc(Cl)cnc2F)c2ccnc(-c3ccn[nH]3)c2n1` [Example 229, 4-(5-chloro-2-fluoropyridin-3-yl)-2-[(3R)-3-methylmorpholin-4-yl]-8-(1H-pyrazol-5-yl)-1,7-naphthyridine], 28.4 nM.
Next, `C[C@@H]1COCCN1c1cc(-c2ccncc2F)c2ccnc(-c3ccn[nH]3)c2n1` [Example 230, 4-(3-fluoropyridin-4-yl)-2-[(3R)-3-methylmorpholin-4-yl]-8-(1H-pyrazol-5-yl)-1,7-naphthyridine]: 31.7 nM; `Cc1cc(-c2cc(N3CCOC[C@H]3C)nc3c(-c4ccn[nH]4)nccc23)cnc1C` [Example 232, 4-(5,6-dimethylpyridin-3-yl)-2-[(3R)-3-methylmorpholin-4-yl]-8-(1H-pyrazol-5-yl)-1,7-naphthyridine]: 39.1 nM.
To `Cc1ncc(-c2cc(N3CCOC[C@H]3C)nc3c(-c4ccn[nH]4)nccc23)cc1F` [Example 233, 4-(5-fluoro-6-methylpyridin-3-yl)-2-[(3R)-3-methylmorpholin-4-yl]-8-(1H-pyrazol-5-yl)-1,7-naphthyridine] belongs 42 nM.
Turning to `Cc1cc(-c2cc(N3CCOC[C@H]3C)nc3c(-c4ccn[nH]4)nccc23)cs1` [Example 234, 2-[(3R)-3-methylmorpholin-4-yl]-4-(5-methylthiophen-3-yl)-8-(1H-pyrazol-5-yl)-1,7-naphthyridine], the IC50 stood at 29.2 nM.
To `COc1ccsc1-c1cc(N2CCOC[C@H]2C)nc2c(-c3ccn[nH]3)nccc12` [Example 235, 4-(3-methoxythiophen-2-yl)-2-[(3R)-3-methylmorpholin-4-yl]-8-(1H-pyrazol-5-yl)-1,7-naphthyridine] belongs 21.3 nM; to `C[C@@H]1COCCN1c1cc(-c2ccsc2Cl)c2ccnc(-c3ccn[nH]3)c2n1` [Example 236, 4-(2-chlorothiophen-3-yl)-2-[(3R)-3-methylmorpholin-4-yl]-8-(1H-pyrazol-5-yl)-1,7-naphthyridine], 28.2 nM; to `C[C@@H]1COCCN1c1cc(-c2cncc3ccccc23)c2ccnc(-c3ccn[nH]3)c2n1` [Example 237, 4-(isoquinolin-4-yl)-2-[(3R)-3-methylmorpholin-4-yl]-8-(1H-pyrazol-5-yl)-1,7-naphthyridine], 18.2 nM.
To `C[C@@H]1COCCN1c1cc(-c2ccc(Cl)s2)c2ccnc(-c3ccn[nH]3)c2n1` [Example 238, 4-(5-chlorothiophen-2-yl)-2-[(3R)-3-methylmorpholin-4-yl]-8-(1H-pyrazol-5-yl)-1,7-naphthyridine] belongs 34.5 nM; to `Cc1csc(-c2cc(N3CCOC[C@H]3C)nc3c(-c4ccn[nH]4)nccc23)c1` [Example 239, 2-[(3R)-3-methylmorpholin-4-yl]-4-(4-methylthiophen-2-yl)-8-(1H-pyrazol-5-yl)-1,7-naphthyridine], 20.3 nM.
In the case of `Cc1cc(-c2cc(N3CCOC[C@H]3C)nc3c(-c4ccn[nH]4)nccc23)c(C)s1` [Example 240, 4-(2,5-dimethylthiophen-3-yl)-2-[(3R)-3-methylmorpholin-4-yl]-8-(1H-pyrazol-5-yl)-1,7-naphthyridine], the half-inhibitory concentration (IC50) worked out at 30 nM.
To `C[C@@H]1COCCN1c1cc(C2CCSCC2)c2ccnc(-c3ccn[nH]3)c2n1` [Example 241, 2-[(3R)-3-methylmorpholin-4-yl]-8-(1H-pyrazol-5-yl)-4-(tetrahydro-2H-thiopyran-4-yl)-1,7-naphthyridine] belongs 4.06 nM; to `C[C@@H]1COCCN1c1cc(C2=CCCN(C)C2)c2ccnc(-c3ccn[nH]3)c2n1` [Example 242, 2-[(3R)-3-methylmorpholin-4-yl]-4-(1-methyl-1,2,5,6-tetrahydropyridin-3-yl)-8-(1H-pyrazol-5-yl)-1,7-naphthyridine], 95.9 nM.
